Measurements: patent US20200247800A1, “SUBSTITUTED BICYCLIC HETEROCYCLIC COMPOUNDS AS NADPH OXIDASE INHIBITORS” (Glenmark Pharmaceuticals S.A., priority 2017, published 2020)
Structures can show the parent of a compound that is named as a salt.

Biological target: T1, human NOX4 (Homo sapiens, UniProt Q9NPH5)
T1 construct: expressed in transfected cells; membrane fraction used
T1 sequence (Q9NPH5 1-578): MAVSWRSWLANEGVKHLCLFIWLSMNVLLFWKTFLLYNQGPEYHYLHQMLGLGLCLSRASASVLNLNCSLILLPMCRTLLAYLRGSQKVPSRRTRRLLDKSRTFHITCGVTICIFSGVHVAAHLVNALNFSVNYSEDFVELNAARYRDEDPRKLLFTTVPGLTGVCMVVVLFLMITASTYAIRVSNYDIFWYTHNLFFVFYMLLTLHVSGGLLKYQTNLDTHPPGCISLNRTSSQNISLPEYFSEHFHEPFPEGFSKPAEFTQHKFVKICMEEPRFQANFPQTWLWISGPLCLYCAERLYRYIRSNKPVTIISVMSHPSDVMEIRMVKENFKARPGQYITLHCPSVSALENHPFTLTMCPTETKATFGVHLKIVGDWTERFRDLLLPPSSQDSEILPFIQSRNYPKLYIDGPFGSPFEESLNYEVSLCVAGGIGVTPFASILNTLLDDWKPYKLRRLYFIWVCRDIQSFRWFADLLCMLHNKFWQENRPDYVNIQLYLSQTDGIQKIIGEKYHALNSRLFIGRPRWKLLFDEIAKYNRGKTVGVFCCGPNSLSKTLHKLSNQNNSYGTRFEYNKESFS
T1 sequence (P13498 1-195 partner): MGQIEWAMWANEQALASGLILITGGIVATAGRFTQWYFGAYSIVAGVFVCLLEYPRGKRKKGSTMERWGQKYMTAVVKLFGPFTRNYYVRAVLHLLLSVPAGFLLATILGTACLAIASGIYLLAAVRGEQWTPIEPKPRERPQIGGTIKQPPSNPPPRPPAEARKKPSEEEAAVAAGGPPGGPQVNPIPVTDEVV
Assay: Cell free membrane based in vitro NOX4 assay: H2O2 production by membranes expressing human NOX4, measured with Amplex Red
Type: biochemical
Details: for inhibition at 1 µM: 1.0 μM compound, read-out: Percentage inhibition at 1.0 μM; for inhibition at 10 µM: 10.0 μM compound, read-out: Percentage inhibition at 10.0 μM; for IC50: class symbols
Description: The inhibition of NOX4 activity was measured as inhibition of formation of reactive oxygen species (ROS) from oxygen in cell free assays. […] A cell free membrane based in vitro assay was developed by preparing membranes from cells stably overexpressing human NOX4. hNOX4/HEK stable cell line was generated in-house for this purpose. Membranes from stably transfected cells overexpressing human NOX4 were prepared by homogenizing the cells in buffer (20 mM HEPES, 1 mM EGTA, 0.5 mM DTT, 0.5% protease inhibitor cocktail, 1 mM PMSF, pH 7.6), followed by centrifugation at 160000 g for 30 min. Membrane fraction (pellet) was resuspended in storage buffer (homogenization buffer with 10% glycerol and 100 mM NaCl) and stored at −80° C. Protein concentration was determined by Bradford reagent. H202 production by membranes expressing human NOX4 was measured using Amplex Red (Invitrogen) by following a slightly modified version of the manufacturer's instruction manual. Briefly, membranes were incubated in assay buffer (25 mM HEPES, 0.12 M NaCl, 3 mM KCl, 1 mM MgCl2, pH 7.4) with Horse Radish Peroxidase (HRP) and Amplex Red. Reaction was started by addition of […] to the membrane mix. Antagonism of NOX4 inhibitors was measured by incubating the membrane with increasing concentrations of the inhibitors for 20 min on a plate shaker prior to addition of NADPH. H2O2 levels were measured for 10 min in a BMG Fluostar microplate reader with excitation and emission wavelengths of 544 nm and 590 nm respectively. Concentration response curves were plotted as a % of maximal response obtained in the absence of the inhibitor. IC50 value was calculated from concentration response curve by nonlinear regression analysis using GraphPad PRISM software.

| Structure (SMILES) | inhibition at 1 µM [%] | inhibition at 10 µM [%] | IC50 [µM] |
| --- | --- | --- | --- |
| Cc1nn(C)c2[nH]c(-c3ccc(Cl)cc3F)c(O)c(=O)c12 [Example 25, 6-(4-Chloro-2-fluorophenyl)-5-hydroxy-1,3-dimethyl-1,7-dihydro-4H-pyrazolo[3,4-b]pyridin-4-one] | 90.7 | 78.3 |  |
| CCn1nc(C)c2c(=O)c(O)c(-c3ccccc3Cl)[nH]c21 [Example 26, 6-(2-Chlorophenyl)-1-ethyl-5-hydroxy-3-methyl-1,7-dihydro-4H-pyrazolo[3,4-b]pyridin-4-one] | 89.7 | 64.5 | 0.05 to 0.1 |
| Cc1nn(CC(F)(F)F)c2[nH]c(-c3ccccc3Cl)c(O)c(=O)c12 [Example 27, 6-(2-Chlorophenyl)-5-hydroxy-3-methyl-1-(2,2,2-trifluoroethyl)-1,7-dihydro-4H-pyrazolo[3,4-b]pyridin-4-one] | 98.2 | 100 | 0.1 to 0.15 |
| Cc1nn(C(C)C)c2[nH]c(-c3ccccc3Cl)c(O)c(=O)c12 [Example 28, 6-(2-Chlorophenyl)-5-hydroxy-3-methyl-1-(propan-2-yl)-1,7-dihydro-4H-pyrazolo[3,4-b]pyridin-4-one] | 82.1 | 58.9 | 0.1 to 0.15 |
| COc1ccc(-n2nc(C)c3c(=O)c(O)c(-c4c(F)cccc4F)[nH]c32)cc1 [Example 29, 6-(2,6-Difluorophenyl)-5-hydroxy-1-(4-methoxyphenyl)-3-methyl-1,7-dihydro-4H-pyrazolo[3,4-b]pyridin-4-one] | 89.4 | 95.6 | 0.1 to 0.15 |
| Cc1nn(-c2ccccn2)c2[nH]c(-c3ccccc3Cl)c(O)c(=O)c12 [Example 30, 6-(2-Chlorophenyl)-5-hydroxy-3-methyl-1-(pyridin-2-yl)-1,7-dihydro-4H-pyrazolo[3,4-b]pyridin-4-one] | 64.1 | 77.3 | > 0.15 |
| Cc1nn(-c2ccc(F)c(F)c2)c2[nH]c(-c3ccccc3Cl)c(O)c(=O)c12 [Example 31, 6-(2-Chlorophenyl)-1-(3,4-difluorophenyl)-5-hydroxy-3-methyl-1,7-dihydro-4H-pyrazolo[3,4-b]pyridin-4-one] | 100 | 100 | < 0.05 |
| Cc1nn(-c2ccc(F)cc2)c2[nH]c(-c3c(F)cccc3F)c(O)c(=O)c12 [Example 32, 6-(2,6-Difluorophenyl)-1-(4-fluorophenyl)-5-hydroxy-3-methyl-1,7-dihydro-4H-pyrazolo[3,4-b]pyridin-4-one] | 100 | 100 | < 0.05 |
| Cc1nn(-c2ccc(F)cc2)c2[nH]c(-c3ccccc3Cl)c(O)c(=O)c12 [Example 33, 6-(2-Chlorophenyl)-1-(4-fluorophenyl)-5-hydroxy-3-methyl-1,7-dihydro-4H-pyrazolo[3,4-b]pyridin-4-one] | 100 | 100 | < 0.05 |
| Cc1nn(-c2cccc(F)c2)c2[nH]c(-c3ccccc3Cl)c(O)c(=O)c12 [Example 34, 6-(2-Chlorophenyl)-1-(3-fluorophenyl)-5-hydroxy-3-methyl-1,7-dihydro-4H-pyrazolo[3,4-b]pyridin-4-one] | 100 | 100 | < 0.05 |
| Cc1nn(-c2cccc(F)c2)c2[nH]c(-c3c(F)cccc3F)c(O)c(=O)c12 [Example 35, 6-(2,6-Difluorophenyl)-1-(3-fluorophenyl)-5-hydroxy-3-methyl-1,7-dihydro-4H-pyrazolo[3,4-b]pyridin-4-one] | 100 | 100 | < 0.05 |
| Cc1nn(-c2ccccn2)c2[nH]c(-c3c(F)cccc3F)c(O)c(=O)c12 [Example 36, 6-(2,6-Difluorophenyl)-5-hydroxy-3-methyl-1-(pyridin-2-yl)-1,7-dihydro-4H-pyrazolo[3,4-b]pyridin-4-one] | 84.2 | 100 | > 0.15 |
| Cc1nn(-c2ccc(F)c(F)c2)c2[nH]c(-c3c(F)cccc3F)c(O)c(=O)c12 [Example 37, 6-(2,6-Difluorophenyl)-1-(3,4-difluorophenyl)-5-hydroxy-3-methyl-1,7-dihydro-4H-pyrazolo[3,4-b]pyridin-4-one] | 100 | 100 | 0.05 to 0.1 |
| COc1ccc(-c2[nH]c3c(c(C)nn3-c3ccc(F)cc3)c(=O)c2O)c(F)c1 [Example 38, 6-(2-Fluoro-4-methoxyphenyl)-1-(4-fluorophenyl)-5-hydroxy-3-methyl-1,7-dihydro-4H-pyrazolo[3,4-b]pyridin-4-one] | 87.5 | 86.1 | 0.1 to 0.15 |
| COc1ccc(-c2[nH]c3c(c(C)nn3-c3ccc(F)c(F)c3)c(=O)c2O)c(F)c1 [Example 39, 1-(3,4-Difluorophenyl)-6-(2-fluoro-4-methoxyphenyl)-5-hydroxy-3-methyl-1,7-dihydro-4H-pyrazolo[3,4-b]pyridin-4-one] | 85 | 87.3 | 0.1 to 0.15 |
| Cn1nc(C(F)(F)F)c2c(=O)c(O)c(-c3ccccc3Cl)[nH]c21 [Example 40, 6-(2-Chlorophenyl)-5-hydroxy-1-methyl-3-(trifluoromethyl)-1,7-dihydro-4H-pyrazolo[3,4-b]pyridin-4-one] | 93.3 | 100 | < 0.05 |
| Cn1nc(C(F)(F)F)c2c(=O)c(O)c(-c3ccccc3F)[nH]c21 [Example 41, 6-(2-Fluorophenyl)-5-hydroxy-1-methyl-3-(trifluoromethyl)-1,7-dihydro-4H-pyrazolo[3,4-b]pyridin-4-one] | 77.7 | 87.6 | > 0.15 |
| Cn1nc(C(F)(F)F)c2c(=O)c(O)c(-c3ccc(F)cc3)[nH]c21 [Example 42, 6-(4-Fluorophenyl)-5-hydroxy-1-methyl-3-(trifluoromethyl)-1,7-dihydro-4H-pyrazolo[3,4-b]pyridin-4-one] | 86.8 | 96.5 | 0.1 to 0.15 |
| Cn1nc(C(F)(F)F)c2c(=O)c(O)c(-c3ccc(Cl)cc3)[nH]c21 [Example 43, 6-(4-Chlorophenyl)-5-hydroxy-1-methyl-3-(trifluoromethyl)-1,7-dihydro-4H-pyrazolo[3,4-b]pyridin-4-one] | 90.6 | 97.9 | 0.1 to 0.15 |
| Cn1nc(C(F)(F)F)c2c(=O)c(O)c(-c3ccc(F)cc3Cl)[nH]c21 [Example 44, 6-(2-Chloro-4-fluorophenyl)-5-hydroxy-1-methyl-3-(trifluoromethyl)-1,7-dihydro-4H pyrazolo[3,4-b]pyridin-4-one] | 84.6 | 100 | > 0.15 |
| Cn1nc(C(F)(F)F)c2c(=O)c(O)c(-c3c(F)cccc3Cl)[nH]c21 [Example 45, 6-(2-Chloro-6-fluorophenyl)-5-hydroxy-1-methyl-3-(trifluoromethyl)-1,7-dihydro-4H-pyrazolo[3,4-b]pyridin-4-one] | 89.1 | 98.6 | 0.1 to 0.15 |
| Cn1nc(C(F)(F)F)c2c(=O)c(O)c(-c3ccncc3Cl)[nH]c21 [Example 46, 6-(3-Chloropyridin-4-yl)-5-hydroxy-1-methyl-3-(trifluoromethyl)-1,7-dihydro-4H-pyrazolo[3,4-b]pyridin-4-one hydrochloride] | 73.6 | 100 | 0.1 to 0.15 |
| COc1ccc(-c2[nH]c3c(c(C(F)(F)F)nn3C)c(=O)c2O)c(F)c1 [Example 47, 6-(2-Fluoro-4-methoxyphenyl)-5-hydroxy-1-methyl-3-(trifluoromethyl)-1,7-dihydro-4H-pyrazolo[3,4-b]pyridin-4-one] | 100 | 100 | 0.05 to 0.1 |
